Laboratory results taken from patent US9347179B2, “Methods of preserving starch in pulp and controlling calcium precipitation and/or scaling” (Buckman Laboratories International, Inc., priority 2012, dated 2016).

System: α-amylase (BUZYME 2508)
Assay: α-amylase activity test with RED-STARCH substrate in paper mill process water
Format: biochemical
Conditions: for effect on the α-amylase activity (in words): high demand solution containing α-amylase, NaOCl at between 10% to 50% of actual chlorine demand; for α-amylase activity: 15 minutes at 40° C. before substrate, 30 minutes at 40° C., percentage of the maximum reading
Description: In the experiments described below, amylase activity was measured using a synthetic α-amylase substrate, “RED-STARCH” obtained from MEGAZYME® (Ireland), and a test procedure developed that allows the use of this substrate in complex paper mill process waters including samples containing cellulose.
The indicated test procedure developed for testing paper mill samples for α-amylase activity includes preparation of the substrate by adding 1 g of powdered RED-STARCH substrate to 50 mL of 0.5 M KCl solution ([…]), and warming up to 60° C. whilst shaking vigorously until dissolved. The prepared substrate can be used fresh or stored under refrigeration until used. A concentrated assay buffer solution was prepared as a 300 mM CaCl2.2H2O solution (39.2 g/l), which for use, is diluted 200 times in the assay. Assays can be performed on any liquid sample recovered in a paper mill. Samples with high turbidity may interfere with the final measurement step. Accordingly, samples containing fiber can be filtered through a paper filter, and liquid from high consistency samples can be recovered by squeezing liquid from the sample. To perform the assay on a sample, 30 μl assay buffer, 3 ml RED-STARCH substrate solution, and a 3 ml test sample solution can be added to a 35 ml test vial, and mix and incubate the vial and contents at constant temperature (35-40° C.) for 30 minutes. The reaction is ended by adding 10 ml ethanol (denatured) or methanol and shaking vigorously, and then allowing the vial and its contents to stand for 2 minutes before filtering the contents through a paper filter. High molecular weight material can be removed by the filtering. Using a 10 ml syringe, the filtered liquid is passed through a 0.22 or 0.45 μm disposable filter cartridge. The liquid that passes through the cartridge is introduced into a spectrophotometer cuvette, and the absorbance (OD) of the reaction solution, and a separate reaction blank, are measured using a spectrophotometer. The reaction blank is prepared by adding 10 ml ethanol or methanol to a test vial first, then add 30 μl assay buffer, 3 ml red starch substrate solution, and a 3 ml test solution, and prepare the samples for measurement as above. The spectrophotometer can be a Hach DR/890 Colorimeter (Hach Company, Loveland Colo.), or other spectrophotometer device. Absorbance can be measured as optical density (OD). On incubation of the RED-STARCH substrate with α-amylase, the substrate can be depolymerized to produce low molecular weight dyed fragments which remain in solution on addition of alcohol to the reaction mixture. The measured value of OD is directly proportional to the α-amylase activity in the test sample. Most spectrophotometers have a scale that reads in OD (absorbance) units, which is a logarithmic scale. A user edited program can be entered into the DR/890 device, including choosing a wavelength of 510 nm at which absorbance is measured, using water as a blank (OD=0), and preparing a maximum α-amylase activity sample by adding a small amount of BUZYME® 2508 (Buckman Laboratories, Belgium) to water and using this in the assay (max. OD that can be measured is approximately 25). The range that is obtained with this program is very large and can suffice for all paper mill samples. Using this testing procedure, paper mill samples typically have absorbance values in the range of 1-7. If a sample gives a maximum reading, it can be diluted in water to determine a more precise value. Results can be represented as the actual number or as a percentage of the maximum reading of the procedure which is 25. The results in Table 1 below show results for α-amylase activity as a percentage of the maximum reading.
In the tests conducted, process water was used that was taken from a coated paper machine pulper fill water tank that was not being treated with an oxidizing program. First, the actual chlorine and monochloramine (NH2Cl) demands of this process water were determined (Table 1). […]

[1] = oxidant added at 10.0% of demand
[2] = oxidant added at 25.0% of demand
[3] = oxidant added at 50% of demand (NaOCl printed 50/0%)
[4] = oxidant added at 100.0% of demand

| activity to inactivate amylases (in words) (in direct tests) | Compound | effect on the α-amylase activity (in words) | α-amylase activity [1] [%] | α-amylase activity [2] [%] | α-amylase activity [3] [%] | α-amylase activity [4] [%] |
| --- | --- | --- | --- | --- | --- | --- |
|  | NCl [NH2Cl, monochloramine] | no significant effect | 100.0 | 98.5 | 99.3 | 99.1 |
| very efficient | OCl [NaOCl, sodium hypochlorite] | effective to reduce the α-amylase activity | 99.2 | 87.4 | 43.8 | 2.1 |
